Results taken from US11278534B2, “Enantiomers of substituted thiazoles as antiviral compounds” (Innovative Molecules GmbH, priority 2017, dated 2022).
Read-outs that look alike come from different tables or passages of the source.

Key:
HSV-1 = assay: activity selectivity assay, HSV-1 infected Vero cells; type: cell-based
Procedure: (§1) HSV (HSV-1 Walki, HSV-1F, HSV-2 MS, HSV clinical isolates and HSV resistant strains) was cultivated on Vero cells (ATCC CCL-81) under the following conditions: The cells were grown in M199 medium (5% foetal calf serum, 2 mM glutamine, 100 IU/mL penicillin, 100 μg/mL streptomycin) in cell culture bottles at 37° C. and 5% CO2. The cells were splitted twice per week (1:4). For the infection, the medium was removed, the cells were washed with Hank's solution, detached using 0.05% trypsin, 0.02% EDTA and incubacted at a density of 4×10^5 cells/mL under the above-mentioned conditions for 24 h. The medium was removed and the virus solution was added at an m.o.i of <0.05 in a volume of 2 mL per 175 cm^2 surface. The infected cells were incubated at 37° C., 5% CO2 for 1 h and then the medium was made up to a volume of 50 mL per 175 cm^2 bottle. […] The virus was released by freezing (−80° C.) and thwawing (37° C.) the infected cultures twice. Cell debris was removed by centrifugation (300 g, 10 min, 4° C.) and the supernatant was frozen in aliquots at −80° C.
(§2) The virus titre was determined using a plaque assay. To this end, Vero cells were seeded in 24-well plates at a density of 4×10^5 cells per well and, after 24 h of incubation (37° C., 5% CO2) infected with 100 μL of inoculum (dilutions (10^−2 to 10^−12) of the virus stock). 1 h after the infection, the medium was removed and the cells were covered with 1 mL of overlay medium (0.5% methylcellulose, 0.22% sodium bicarbonate, 2 mM glutamine, 100 IU/mL penicillin, 100 μg/mL streptomycin, 5% foetal calf serum in MEM-Eagle medium with Earl's salt) and incubated for 3 d in a cell incubator at (37° C., 5% CO2). The cells were then fixated using 4% formaline for 1 h, washed with water, stained with Giemsa for 30 min and then washed and dried. Using a plaque viewer, the virus titre was determined.
(§3) The antiviral action was determined using a patented (DE10235967 and WO2004/015416) and subsequently published activity selectivity assay (G. Kleymann et al. J. Biomol. Screen. 2004; 9, 578) in 96- or 384-well mictrotitre plates using various cell lines of neuronal, lymphoid and epithelial origin, such as, for example, Vero (african green monkey kidney cells), MEF (murine embryonal fibroblasts), HELF (human embryonal fibroblasts), NT2 (human neuronal cell line) or Jurkat (human lymphoid T-cell line). The relevant experimental details of the above mentioned patent and publication to evaluate the antiviral activity of the invention (disclosed compounds) are described below.
(§4) The effect of the substances on the spreading of the cytopathogenic effect was determined in comparision to the reference compound acyclovir-sodium (Zovirax™), a clinically approved anti-herpes chemotherapeutic.
(§5) The compounds (50 mM stock solution dissolved in DMSO) are examined on microtitre plates (for example 96-well flat bottom cell culture plates) at a final concentration of 250 to 0.5 μM or, in case of potent antiviral compounds, 250 to 0.5 nM in 2 to 4 replications (4 to 2 substances per plate). Also examined are toxic and cytostatic effects or precipitation of the compounds. […]

HSV-2 = assay: activity selectivity assay, HSV-2 infected Vero cells; type: cell-based
Procedure: as §1, §2, §3, §4, §5

HSV-1 ACV resistant = assay: activity selectivity assay, HSV-1 ACV resistant; type: cell-based
Procedure: as §1, §2, §3, §4, §5

Human Carboanhydrase II = Human Carboanhydrase II (Homo sapiens, UniProt P00918); assay: carbonic anhydrase activity assay (pH indicator method); type: biochemical; details: for carbonic anhydrase inhibition: result in words
in vivo = assay: in vivo; design: species or system mice strain C57BL/6J; details: male, C57BL/6J, mouse, po, 10 mg/kg
Procedure: Pharmcokinetic parameters were determined for Example 7, 7(−), 7(+) and 7c in male mice strain C57BL/6J at an intraveneous (i.v.) dose of 5 mg/kg (5% DMSO in heterologous plasma, 2.5 mL/kg) and an oral dose (p.o) of 10 mg/kg (DMSO/0.5% HPMC (5:95), 5 mL/kg).

For Cc1nc(N(C)C(=O)Cc2ccc(-c3ccccn3)cc2)sc1S(=N)(=O)C1CC1 (racemic) [Example 7b, N-[5-(Cyclopropylsulfonimidoyl)-4-methyl-thiazol-2-yl]-N-methyl-2-[4-(2-pyridyl)phenyl]acetamide], the IC50 (HSV-1; Human alphaherpesvirus 1) was 0.1 to 0.4 µM, the IC50 (HSV-2; Human alphaherpesvirus 2) was 0.25 to 1 µM and the IC50 (HSV-1 ACV resistant; Human alphaherpesvirus 1) was 0.1 to 0.4 µM. The IC50 (Human Carboanhydrase II) was over 10 µM and the carbonic anhydrase inhibition (Human Carboanhydrase II) was “no or significantly reduced carbonic anhydrase inhibition”.
Cc1nc(N(C)C(=O)Cc2ccc(-c3ccccn3)cc2)sc1[S@](C)(=N)=O (racemic) [Example 7c, N-Methyl-N-[4-methyl-5-(methylsulfonimidoyl)thiazol-2-yl]-2-[4-(2-pyridyl)phenyl]acetamide] showed an IC50 (HSV-1; Human alphaherpesvirus 1) of 0.15 to 0.6 µM, an IC50 (HSV-2; Human alphaherpesvirus 2) of 0.2 to 1.5 µM and an IC50 (HSV-1 ACV resistant; Human alphaherpesvirus 1) of 0.15 to 0.6 µM. For the same molecule, the IC50 (Human Carboanhydrase II) was over 10 µM, the AUC (in vivo) was 22.5 µg·h/mL and the Cmax (in vivo) was 4.29 µg/mL.
Work on Cc1nc(N(C)C(=O)Cc2ccc(-c3cc(F)ccc3F)cc2)sc1[S@](=N)(=O)C1CC1 (single isomer, unassigned) [Example 7a(+), (+)-N-(5-(Cyclopropanesulfonimidoyl)-4-methylthiazol-2-yl)-2-(2′,5′-difluoro-[1,1′-biphenyl]-4-yl)-N-methylacetamide] yielded an IC50 (HSV-1; Human alphaherpesvirus 1) of 0.25 to 0.75 µM, an IC50 (HSV-2; Human alphaherpesvirus 2) of 0.5 to 2 µM and an IC50 (HSV-1 ACV resistant; Human alphaherpesvirus 1) of 0.25 to 0.75 µM.
Cc1nc(N(C)C(=O)Cc2ccc(-c3cc(F)ccc3F)cc2)sc1[S@@](=N)(=O)C1CC1 (single isomer, unassigned) [Example 7a(−), (−)-N-(5-(Cyclopropanesulfonimidoyl)-4-methylthiazol-2-yl)-2-(2′,5′-difluoro-[1,1′-biphenyl]-4-yl)-N-methylacetamide] gave an IC50 (HSV-1; Human alphaherpesvirus 1) of 0.02 to 0.05 µM, an IC50 (HSV-2; Human alphaherpesvirus 2) of 0.03 to 0.3 µM and an IC50 (HSV-1 ACV resistant; Human alphaherpesvirus 1) of 0.02 to 0.05 µM.
For Cc1nc(N(C)C(=O)Cc2ccc(-c3ccccn3)cc2)sc1[S@](=N)(=O)C1CC1 (single isomer, unassigned) [Example 7b(+), (+)-N-(5-(Cyclopropanesulfonimidoyl)-4-methylthiazol-2-yl)-N-methyl-2-(4-(pyridin-2-yl)phenyl)acetamide], the IC50 (HSV-1; Human alphaherpesvirus 1) was 0.5 to 1.5 µM, the IC50 (HSV-2; Human alphaherpesvirus 2) was 2 to 8 µM and the IC50 (HSV-1 ACV resistant; Human alphaherpesvirus 1) was 0.5 to 1.5 µM.
With Cc1nc(N(C)C(=O)Cc2ccc(-c3ccccn3)cc2)sc1[S@@](=N)(=O)C1CC1 (single isomer, unassigned) [Example 7b(−), (−)-N-(5-(Cyclopropanesulfonimidoyl)-4-methylthiazol-2-yl)-N-methyl-2-(4-(pyridin-2-yl)phenyl)acetamide] the IC50 (HSV-1; Human alphaherpesvirus 1) was 0.075 to 0.25 µM, the IC50 (HSV-2; Human alphaherpesvirus 2) was 0.2 to 0.75 µM and the IC50 (HSV-1 ACV resistant; Human alphaherpesvirus 1) was 0.075 to 0.25 µM.
Cc1nc(N(C)C(=O)Cc2ccc(-c3ccccn3)cc2)sc1[S@](C)(=N)=O (single isomer, unassigned) [Example 7c(+), (+)-N-Methyl-N-(4-methyl-5-(S-methylsulfonimidoyl)thiazol-2-yl)-2-(4-(pyridin-2-yl)phenyl)acetamide] showed an IC50 (HSV-1; Human alphaherpesvirus 1) of 0.3 to 0.75 µM, an IC50 (HSV-2; Human alphaherpesvirus 2) of 0.5 to 1.5 µM and an IC50 (HSV-1 ACV resistant; Human alphaherpesvirus 1) of 0.3 to 0.75 µM. For the same molecule, the IC50 (Human Carboanhydrase II) was over 10 µM, the carbonic anhydrase inhibition (Human Carboanhydrase II) was “no or significantly reduced carbonic anhydrase inhibition” and the AUC (in vivo) was 31.2 µg·h/mL. For the same molecule, the Cmax (in vivo) was 5.7 µg/mL.
With Cc1nc(N(C)C(=O)Cc2ccc(-c3ccccn3)cc2)sc1[S@@](C)(=N)=O (single isomer, unassigned) [Example 7c(−), (−)-N-Methyl-N-(4-methyl-5-(S-methylsulfonimidoyl)thiazol-2-yl)-2-(4-(pyridin-2-yl)phenyl)acetamide] the IC50 (HSV-1; Human alphaherpesvirus 1) was 0.075 to 0.3 µM, the IC50 (HSV-2; Human alphaherpesvirus 2) was 0.1 to 0.75 µM and the IC50 (HSV-1 ACV resistant; Human alphaherpesvirus 1) was 0.075 to 0.3 µM. For the same molecule, the IC50 (Human Carboanhydrase II) was over 10 µM, the carbonic anhydrase inhibition (Human Carboanhydrase II) was “no or significantly reduced carbonic anhydrase inhibition” and the AUC (in vivo) was 38 µg·h/mL. It also gave a Cmax (in vivo) of 6.65 µg/mL.
For CN(C(=O)Cc1ccc(-c2cc(F)ccc2F)cc1)c1nc(CO)c([S@@](C)(=N)=O)s1 (single isomer, unassigned) [Example 10a, 2-(2′,5′-Difluoro-[1,1′-biphenyl]-4-yl)-N-(4-(hydroxymethyl)-5-(S-methylsulfonimidoyl)thiazol-2-yl)-N-methylacetamide], the IC50 (HSV-1; Human alphaherpesvirus 1) was 0.05 to 0.25 µM, the IC50 (HSV-2; Human alphaherpesvirus 2) was 1 to 5 µM and the IC50 (HSV-1 ACV resistant; Human alphaherpesvirus 1) was 0.05 to 0.25 µM.
Work on CN(C(=O)Cc1ccc(-c2cc(F)ccc2F)cc1)c1nc(CO)c([S@](C)(=N)=O)s1 (single isomer, unassigned) [Example 10b, 2-(2′,5′-Difluoro-[1,1′-biphenyl]-4-yl)-N-(4-(hydroxymethyl)-5-(S-methylsulfonimidoyl)thiazol-2-yl)-N-methylacetamide] yielded an IC50 (HSV-1; Human alphaherpesvirus 1) of 1 to 5 µM, an IC50 (HSV-2; Human alphaherpesvirus 2) of 5 to 25 µM and an IC50 (HSV-1 ACV resistant; Human alphaherpesvirus 1) of 1 to 5 µM.
With Cc1nc(N(C)C(=O)Cc2ccc(-c3ccccn3)cc2)sc1[S@](C)(=N)=O (stereo in doubt) [Example 7c, N-Methyl-N-[4-methyl-5-(methylsulfonimidoyl)thiazol-2-yl]-2-[4-(2-pyridyl)phenyl]acetamide] the carbonic anhydrase inhibition (Human Carboanhydrase II) was “no or significantly reduced carbonic anhydrase inhibition”.
With Nc1nc2c(ncn2COCCO)c(=O)[nH]1 [Acyclovir, reference compound] the IC50 (HSV-1) was 0.5 to 3 µM, the IC50 (HSV-2) was 0.5 to 3 µM and the IC50 (HSV-1 ACV resistant; HSV-1 ACV resistant) was over 25 µM.
Molecule Cc1nc(N(C)C(=O)Cc2ccc(-c3cc(F)ccc3F)cc2)sc1[S@](C)(=N)=O [Example 7(+), (+)-(R)-2-(2′,5′-Difluoro-[1,1′-biphenyl]-4-yl)-N-methyl-N-(4-methyl-5-(S-methylsulfonimidoyl)thiazol-2-yl)acetamide] has an IC50 (HSV-1; Human alphaherpesvirus 1) of 0.03 to 0.2 µM, an IC50 (HSV-2; Human alphaherpesvirus 2) of 0.03 to 0.2 µM and an IC50 (HSV-1 ACV resistant; Human alphaherpesvirus 1) of 0.03 to 0.2 µM. For the same molecule, the IC50 (Human Carboanhydrase II) was over 10 µM and the carbonic anhydrase inhibition (Human Carboanhydrase II) was “no or significantly reduced carbonic anhydrase inhibition”.
In the case of Cc1nc(N(C)C(=O)Cc2ccc(-c3cc(F)ccc3F)cc2)sc1S(=N)(=O)C1CC1 (stereo not shown) [Example 7a, N-[5-(Cyclopropylsulfonimidoyl)-4-methyl-thiazol-2-yl]-2-[4-(2,5-difluorophenyl)phenyl]-N-methyl-acetamide], the IC50 (HSV-1; Human alphaherpesvirus 1) is reported as 0.03 to 0.1 µM, the IC50 (HSV-2; Human alphaherpesvirus 2) is reported as 0.05 to 0.5 µM and the IC50 (HSV-1 ACV resistant; Human alphaherpesvirus 1) is reported as 0.03 to 0.1 µM.
With CC(=O)N=[S@](C)(=O)c1sc(N(C)C(=O)Cc2ccc(-c3cc(F)ccc3F)cc2)nc1C [Example 8, (R)-N-(5-(N-Acetyl-S-methylsulfonimidoyl)-4-methylthiazol-2-yl)-2-(2′,5′-difluoro-[1,1′-biphenyl]-4-yl)-N-methylacetamide] the IC50 (HSV-1; Human alphaherpesvirus 1) was 10 to 50 µM, the IC50 (HSV-2; Human alphaherpesvirus 2) was 50 to 250 µM and the IC50 (HSV-1 ACV resistant; Human alphaherpesvirus 1) was 10 to 50 µM.
